For the data set, the system named is human PKK mRNA. As to the kind of experiment: Antisense inhibition of human PKK mRNA in HepaRG cells, 1,000 nM, MOE/deoxy/cEt oligonucleotides (Example 3). Type of data set: cell-based. In outline:
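HepaRG cells at 20,000 per well electroporated with 1,000 nM 16-mer MOE/cEt/deoxy gapmers (phosphorothioate, 5-methylcytosine). After about 24 h, PKK mRNA measured by qRT-PCR with primer probe set RTS3454, normalized to RIBOGREEN total RNA. Reported as percent inhibition versus untreated cells.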

Where [1] appears, read: HepaRG cells, electroporation with 1,000 nM antisense oligonucleotide, approx. 24 hours, PKK mRNA by RT-PCR (RTS3454), relative to untreated control cells, Table 25 experiment.
Where [2] appears, read: Table 30, human PKK mRNA, HepaRG cells, 1,000 nM antisense oligonucleotide.
Setting [3] is: PKK mRNA, HepaRG cells, 1,000 nM antisense oligonucleotide, Table 31.
[4] abbreviates: Table 20, HepaRG cells, electroporation with 1,000 nM antisense oligonucleotide, approximately 24 hours, PKK mRNA by RT-PCR (RTS3454), relative to untreated control cells.
[5] abbreviates: Table 22 experiment, HepaRG cells, electroporation with 1,000 nM antisense oligonucleotide, approx. 24 hours, PKK mRNA by RT-PCR (RTS3454), relative to untreated control cells.
[6] abbreviates: Table 28, HepaRG cells, 1,000 nM antisense oligonucleotide, human PKK mRNA.
Setting [7] is: HepaRG cells, electroporation with 1,000 nM antisense oligonucleotide, approx. 24 hours, PKK mRNA by RT-PCR (RTS3454), relative to untreated control cells, Table 26 experiment.
Setting [8] is: HepaRG cells, electroporation with 1,000 nM antisense oligonucleotide, approximately 24 hours, primer probe set RTS3454, relative to untreated control cells, experiment of Table 23.
[9] abbreviates: Table 19, HepaRG cells, electroporation with 1,000 nM antisense oligonucleotide, approximately 24 hours, PKK mRNA by RT-PCR (RTS3454), relative to untreated control cells.
The mark [10] stands for this setting: Table 27, HepaRG cells, 1,000 nM antisense oligonucleotide, human PKK mRNA.
Where [11] appears, read: HepaRG cells, electroporation with 1,000 nM antisense oligonucleotide, approximately 24 hours, primer probe set RTS3454, relative to untreated control cells, experiment of Table 24.
The mark [12] stands for this setting: Table 21 experiment, HepaRG cells, electroporation with 1,000 nM antisense oligonucleotide, approx. 24 hours, PKK mRNA by RT-PCR (RTS3454), relative to untreated control cells.
Where [13] appears, read: HepaRG cells, 1,000 nM antisense oligonucleotide, Table 29.

Strand notation (5' to 3'): a small letter for the sugar, then the base; units joined by * are phosphorothioate-linked, units joined directly phosphodiester-linked; [ ] holds rarer units or linkages, { } end groups; capitals alone tell only the bases. e = 2'-O-(2-methoxyethyl) (MOE); k = constrained ethyl (cEt); [5mC] = 5-methylcytosine; d = 2'-deoxy (DNA)

Turning to “548202 (eG*e[5mC]*kT*dG*dT*dT*d[5mC]*dT*dA*dA*dT*dG*dT*kG*kG*e[5mC]; antisense) [compound 548202]”, the “% inhibition” value under setting [1] was 9%.
With “548415 (antisense eA*eT*kA*dA*d[5mC]*dT*d[5mC]*dT*dA*dA*d[5mC]*dA*dG*kT*kA*eT) [compound 548415]”, the “% inhibition” value under setting [2] amounted to 0%.
Regarding “548675 (antisense eG*eG*kG*dA*dA*dG*dG*dT*dA*dG*dT*dG*dT*kT*kA*e[5mC]) [compound 548675]”, the “% inhibition” value under setting [3] is 8%.
As for “547886 (e[5mC]*eG*kG*dT*dA*d[5mC]*dT*d[5mC]*dT*dG*d[5mC]*d[5mC]*dT*kT*kG*eT; antisense) [compound 547886]”, the “% inhibition” value runs as follows: under setting [4], 97%; under setting [5], 89%.
Turning to “548513 (antisense e[5mC]*e[5mC]*kT*dG*d[5mC]*dT*dG*dA*dT*dT*dG*dT*dG*kT*k[5mC]*eT) [compound 548513]”, under setting [6], the “% inhibition” value came out at 16%.
Consider “548275 (antisense eG*eT*k[5mC]*d[5mC]*d[5mC]*dA*dA*dG*dA*d[5mC]*dA*dT*dT*k[5mC]*k[5mC]*eT) [compound 548275]”, for which the “% inhibition” value under setting [7] is listed as 40%.
In the case of “547941 (eG*eT*kG*dT*dG*d[5mC]*d[5mC]*dA*d[5mC]*dT*dT*dT*d[5mC]*kA*kG*eA; antisense) [compound 547941]”, the “% inhibition” value under setting [8] came out at 66%.
“548616 (antisense eA*eT*kT*dG*dG*dT*dG*dG*d[5mC]*dG*dG*dG*dA*kT*k[5mC]*eG) [compound 548616]”: under setting [3], the “% inhibition” value is 35%.
“547984 (antisense e[5mC]*eG*kA*dA*dT*d[5mC]*dA*dT*d[5mC]*dT*dT*dT*dG*kT*kG*e[5mC]) [compound 547984]”: the “% inhibition” value under setting [8] is reported as 55%.
“548459 (e[5mC]*eA*kA*d[5mC]*dT*dA*dT*dA*dA*d[5mC]*dA*dG*dT*kA*kT*e[5mC]; antisense) [compound 548459]”: the “% inhibition” value under setting [6] is on record as 26%.
Turning to “548146 (eG*eT*k[5mC]*d[5mC]*dT*dT*dA*dG*dG*dA*dT*dG*d[5mC]*kA*kA*eA; antisense) [compound 548146]”, the “% inhibition” value under setting [9] was 68%.
As for “548178 (eG*eA*kG*dA*dT*d[5mC]*dT*d[5mC]*dA*dG*dT*dT*dG*k[5mC]*kG*eA; antisense) [compound 548178]”, the “% inhibition” value under setting [1] was 54%.
On to “548305 (eG*eT*kT*d[5mC]*dT*dT*dG*d[5mC]*dT*dT*dA*dT*d[5mC]*k[5mC]*kT*e[5mC]; antisense) [compound 548305]”, for which the “% inhibition” value under setting [10] is given as 55%.
As for “548290 (eG*eA*kG*d[5mC]*dA*d[5mC]*dT*d[5mC]*dT*dT*dA*dT*dT*kA*kG*e[5mC]; antisense) [compound 548290]”, the “% inhibition” value under setting [7] turned out to be 31%.
In the case of “548332 (antisense eG*eA*kT*dG*dA*dA*dA*dT*dG*dT*dG*d[5mC]*dA*k[5mC]*k[5mC]*eT) [compound 548332]”, the “% inhibition” value under setting [10] is listed as 46%.
“548054 (eA*eA*kT*dT*d[5mC]*dA*dA*dA*dG*dG*dA*dG*d[5mC]*k[5mC]*kT*eG; antisense) [compound 548054]”: the “% inhibition” value under setting [11] is given as 45%.
As to “548669 (antisense eA*eA*kT*dG*d[5mC]*dA*dG*dG*d[5mC]*d[5mC]*dA*dG*d[5mC]*kA*kT*e[5mC]) [compound 548669]”, the “% inhibition” value under setting [3] came to 42%.
On to “548364 (antisense eT*eG*kG*d[5mC]*dT*dA*dA*dG*dT*d[5mC]*dA*dG*dG*k[5mC]*k[5mC]*e[5mC]) [compound 548364]”, for which the “% inhibition” value under setting [10] worked out at 30%.
For the substance “547811 (eA*e[5mC]*k[5mC]*dT*d[5mC]*dA*dT*d[5mC]*dT*dG*dG*d[5mC]*dA*kG*kT*eA; antisense) [compound 547811]”, the “% inhibition” value under setting [12] was found to be 49%.
In the case of “547883 (eA*e[5mC]*kT*dG*dG*d[5mC]*dA*dG*d[5mC]*dG*dA*dA*dT*kG*kT*eT; antisense) [compound 547883]”, the “% inhibition” value came out at 99% under setting [4] and 0% under setting [5].
As to “548399 (eA*eG*kT*d[5mC]*d[5mC]*dT*dA*d[5mC]*dA*dA*dT*dT*dA*k[5mC]*k[5mC]*eA; antisense) [compound 548399]”, the “% inhibition” value under setting [2] was 11%.
Turning to “548650 (antisense e[5mC]*eT*kG*dA*dT*d[5mC]*d[5mC]*d[5mC]*dA*d[5mC]*dT*dT*dG*k[5mC]*k[5mC]*e[5mC]) [compound 548650]”, under setting [3], the “% inhibition” value is recorded as 21%.
As for “548544 (antisense eG*e[5mC]*kT*dG*dT*dG*dA*d[5mC]*dT*d[5mC]*dA*dG*dA*kT*k[5mC]*eA) [compound 548544]”, the “% inhibition” value under setting [13] stood at 62%.
On to “548500 (antisense eA*eT*kT*dG*d[5mC]*dT*d[5mC]*dA*dG*dG*d[5mC]*d[5mC]*d[5mC]*k[5mC]*k[5mC]*eT) [compound 548500]”, for which the “% inhibition” value under setting [6] was 29%.
Regarding “547945 (eA*eA*k[5mC]*dT*dT*dG*dG*dT*dG*dT*dG*d[5mC]*d[5mC]*kA*k[5mC]*eT; antisense) [compound 547945]”, under setting [8], the “% inhibition” value came to 62%.
The same measure, in the same setting: the same measure for “547985 (antisense eG*e[5mC]*kG*dA*dA*dT*d[5mC]*dA*dT*d[5mC]*dT*dT*dT*kG*kT*eG) [compound 547985]”: 63%.
Regarding “548129 (eT*eT*kT*dG*dA*d[5mC]*dT*dT*dG*dA*dA*d[5mC]*dT*k[5mC]*kA*eG; antisense) [compound 548129]”, the “% inhibition” value under setting [9] was found to be 35%.
On to “548462 (eA*e[5mC]*k[5mC]*dT*dA*dT*dA*dT*d[5mC]*dA*d[5mC]*dT*dG*kT*kA*eA; antisense) [compound 548462]”, for which the “% inhibition” value under setting [6] was 0%.
On to “548444 (antisense e[5mC]*eT*kA*dT*dG*dT*d[5mC]*dA*d[5mC]*dT*dG*dT*dA*k[5mC]*k[5mC]*eT) [compound 548444]”, for which the “% inhibition” value under setting [2] is recorded as 43%.
On to “548550 (antisense e[5mC]*e[5mC]*kG*dG*d[5mC]*d[5mC]*dT*dG*dG*dA*dT*dA*d[5mC]*kA*kG*e[5mC]) [compound 548550]”, for which, under setting [13], the “% inhibition” value came to 0%.
In the case of “548427 (antisense e[5mC]*eT*kA*dT*dA*dA*d[5mC]*dA*dG*dT*dA*dT*d[5mC]*kA*k[5mC]*eT) [compound 548427]”, under setting [2], the “% inhibition” value stood at 24%.
Turning to “548578 (e[5mC]*eA*kT*dG*dG*d[5mC]*dT*dA*dT*dT*dG*d[5mC]*dT*kT*k[5mC]*e[5mC]; antisense) [compound 548578]”, under setting [13], the “% inhibition” value is on record as 73%.
Same read-out and setting: the figure for “548581 (eG*eG*kT*dG*dG*dG*dT*dT*dA*dT*d[5mC]*dT*dG*kA*kG*eA; antisense) [compound 548581]” is 13%.
Consider “548095 (antisense eT*eG*kT*dT*dT*dG*d[5mC]*dA*dA*dA*d[5mC]*dT*dA*kA*kG*eG) [compound 548095]”, for which, under setting [9], the “% inhibition” value amounted to 35%.
Turning to “548013 (eG*eT*k[5mC]*d[5mC]*d[5mC]*d[5mC]*dA*dG*dT*dG*dT*dT*dA*k[5mC]*kA*e[5mC]; antisense) [compound 548013]”, the “% inhibition” value under setting [11] was found to be 37%.
With “547879 (antisense eT*e[5mC]*kA*dA*d[5mC]*dA*d[5mC]*dT*dG*d[5mC]*dT*dA*dA*k[5mC]*k[5mC]*eT) [compound 547879]”, the “% inhibition” value is 69% under setting [4] and 65% under setting [5].
As to “548535 (antisense eG*eA*kG*dT*d[5mC]*dT*dT*dT*d[5mC]*d[5mC]*dA*dA*dT*k[5mC]*k[5mC]*eT) [compound 548535]”, the “% inhibition” value under setting [6] is reported as 13%.
For the substance “548494 (antisense eT*eG*kT*dG*dA*d[5mC]*d[5mC]*d[5mC]*d[5mC]*d[5mC]*d[5mC]*dA*d[5mC]*k[5mC]*kG*e[5mC]) [compound 548494]”, the “% inhibition” value under setting [6] turned out to be 39%.
Regarding “547990 (antisense eA*e[5mC]*kT*dG*dA*d[5mC]*dA*dG*d[5mC]*dG*dA*dA*dT*k[5mC]*kA*eT) [compound 547990]”, the “% inhibition” value under setting [8] is listed as 58%.
As to “548621 (antisense eG*eA*kA*d[5mC]*dA*d[5mC]*dA*dT*d[5mC]*dA*dG*dG*dG*kA*kT*eT) [compound 548621]”, under setting [3], the “% inhibition” value is on record as 33%.
Take “548584 (eT*eG*kA*dT*dG*dA*dA*dG*dT*dT*d[5mC]*d[5mC]*dA*k[5mC]*k[5mC]*eT; antisense) [compound 548584]”: the “% inhibition” value under setting [13] turned out to be 47%.
“548078 (eT*e[5mC]*kT*dT*d[5mC]*dA*dT*dT*dT*dG*dT*dT*dA*k[5mC]*k[5mC]*eA; antisense) [compound 548078]”: the “% inhibition” value under setting [9] was 36%.
Consider “547951 (eA*eG*kA*dT*dA*dT*dG*dG*dT*dG*dT*dT*dT*kT*k[5mC]*eT; antisense) [compound 547951]”, for which the “% inhibition” value under setting [8] stood at 25%.
As for “547816 (eG*eA*kA*d[5mC]*dT*dT*dG*d[5mC]*dT*dG*dG*dA*dA*kG*kA*eA; antisense) [compound 547816]”, under setting [12], the “% inhibition” value was determined as 45%.

The values above are taken from patent US11840686B2, “Modulation of prekallikrein (PKK) expression” (Ionis Pharmaceuticals, Inc., priority 2013, dated 2023).
